In patent US11180474B2 (BRISTOL-MYERS SQUIBB COMPANY, priority 2016, dated 2021):

Key:
Assay type in all cases: cell-based
[1] = target: T1, human TLR7 (Homo sapiens, UniProt Q9NYK1); assay: TLR7 inhibition reporter assay (HEK-Blue cells, SEAP reporter, gardiquimod stimulation); conditions: HEK-Blue cells overexpressing human TLR7, gardiquimod 7.5 μM
T1 construct: host or cells: HEK-Blue cells
T1 sequence (Q9NYK1 27-1049): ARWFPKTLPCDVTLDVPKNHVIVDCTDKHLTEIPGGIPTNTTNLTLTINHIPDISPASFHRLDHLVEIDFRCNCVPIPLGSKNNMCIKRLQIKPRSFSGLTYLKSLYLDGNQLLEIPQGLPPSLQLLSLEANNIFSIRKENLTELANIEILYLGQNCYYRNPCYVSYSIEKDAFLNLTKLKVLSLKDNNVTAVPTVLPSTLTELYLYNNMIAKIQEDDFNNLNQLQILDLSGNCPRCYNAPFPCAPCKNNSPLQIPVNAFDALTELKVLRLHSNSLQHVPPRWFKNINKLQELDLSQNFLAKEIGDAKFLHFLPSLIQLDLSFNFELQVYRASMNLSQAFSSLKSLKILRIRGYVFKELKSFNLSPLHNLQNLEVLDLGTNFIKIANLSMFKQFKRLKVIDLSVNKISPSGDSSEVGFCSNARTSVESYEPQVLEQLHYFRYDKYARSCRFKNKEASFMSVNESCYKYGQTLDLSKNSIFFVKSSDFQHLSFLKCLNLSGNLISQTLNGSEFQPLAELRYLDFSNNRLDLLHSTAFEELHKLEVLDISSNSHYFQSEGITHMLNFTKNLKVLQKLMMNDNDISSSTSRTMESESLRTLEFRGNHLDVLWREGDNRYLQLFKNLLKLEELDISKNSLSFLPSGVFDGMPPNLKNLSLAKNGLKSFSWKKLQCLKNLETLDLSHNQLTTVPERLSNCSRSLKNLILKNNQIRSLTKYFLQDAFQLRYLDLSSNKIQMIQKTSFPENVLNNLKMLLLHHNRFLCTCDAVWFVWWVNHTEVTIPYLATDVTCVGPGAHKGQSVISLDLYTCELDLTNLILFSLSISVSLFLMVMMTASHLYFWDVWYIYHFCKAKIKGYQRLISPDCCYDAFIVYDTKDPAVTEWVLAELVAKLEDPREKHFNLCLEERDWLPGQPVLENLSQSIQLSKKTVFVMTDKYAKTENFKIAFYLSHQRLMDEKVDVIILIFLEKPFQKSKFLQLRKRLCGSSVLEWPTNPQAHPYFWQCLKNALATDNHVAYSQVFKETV
In short: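 In this cell reporter format, test compounds at 0.05 nM-50 μM final incubate 22 h with seeded cells (TLR7 15000, TLR8 20,000 per well). SEAP read-out by HEK-Blue Detection medium yields % inhibition relative to agonist/DMSO and known-inhibitor wells.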

[2] = target: T2, human TLR8 (Homo sapiens, UniProt Q9NR97); assay: TLR8 inhibition reporter assay (HEK-Blue cells, SEAP reporter, R848 stimulation); conditions: HEK-Blue cells overexpressing human TLR8, R848 15.9 μM
T2 construct: host or cells: HEK-Blue cells
T2 sequence (Q9NR97 27-1041): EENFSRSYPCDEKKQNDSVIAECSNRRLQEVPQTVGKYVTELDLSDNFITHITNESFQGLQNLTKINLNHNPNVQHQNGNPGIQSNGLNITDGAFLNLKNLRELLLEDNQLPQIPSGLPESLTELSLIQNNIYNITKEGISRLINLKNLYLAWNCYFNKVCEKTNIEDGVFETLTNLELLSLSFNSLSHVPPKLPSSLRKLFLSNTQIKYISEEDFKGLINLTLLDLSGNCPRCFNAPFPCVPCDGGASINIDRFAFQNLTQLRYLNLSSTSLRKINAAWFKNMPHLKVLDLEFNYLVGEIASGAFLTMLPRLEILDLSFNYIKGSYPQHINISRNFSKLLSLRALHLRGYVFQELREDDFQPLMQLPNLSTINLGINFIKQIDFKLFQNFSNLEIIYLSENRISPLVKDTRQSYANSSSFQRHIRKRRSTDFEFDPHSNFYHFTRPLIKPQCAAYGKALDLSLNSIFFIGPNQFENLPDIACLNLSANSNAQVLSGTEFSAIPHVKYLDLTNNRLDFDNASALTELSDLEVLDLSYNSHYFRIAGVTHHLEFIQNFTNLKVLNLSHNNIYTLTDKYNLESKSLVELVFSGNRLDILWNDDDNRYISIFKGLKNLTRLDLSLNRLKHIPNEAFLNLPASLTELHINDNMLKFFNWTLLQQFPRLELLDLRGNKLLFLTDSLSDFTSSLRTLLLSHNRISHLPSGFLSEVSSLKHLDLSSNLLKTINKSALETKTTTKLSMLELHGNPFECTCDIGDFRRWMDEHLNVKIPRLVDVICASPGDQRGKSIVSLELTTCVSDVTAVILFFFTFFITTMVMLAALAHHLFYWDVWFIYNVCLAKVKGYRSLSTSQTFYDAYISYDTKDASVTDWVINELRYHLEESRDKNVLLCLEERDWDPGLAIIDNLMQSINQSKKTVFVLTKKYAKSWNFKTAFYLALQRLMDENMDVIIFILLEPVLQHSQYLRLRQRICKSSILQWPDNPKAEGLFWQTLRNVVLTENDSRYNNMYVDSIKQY
Description: TLR7/8/9 Inhibition Reporter Assays
Briefly, cells are seeded into Greiner 384 well plates (15000 cells per well for TLR7, 20,000 for TLR8 and 25,000 for TLR9) and then treated with test compounds in DMSO to yield a final dose response concentration range of 0.05 nM-50 μM. […] After a 22 hour incubation at 37° C., 5% CO2, SEAP levels are determined with the addition of HEK-Blue™ Detection reagent (Invivogen), a cell culture medium that allows for detection of SEAP, according to manufacturer's specifications. The percent inhibition is determined as the % reduction in the HEK-Blue signal present in wells treated with agonist plus DMSO alone compared to wells treated with a known inhibitor.

[3] = target: T3, human TLR9 (Homo sapiens, UniProt Q9NR96); assay: TLR9 inhibition reporter assay (HEK-Blue cells, SEAP reporter, ODN2006 stimulation); conditions: HEK-Blue cells overexpressing human TLR9, ODN2006 5 nM
T3 construct: host or cells: HEK-Blue cells
T3 sequence (Q9NR96 26-1032): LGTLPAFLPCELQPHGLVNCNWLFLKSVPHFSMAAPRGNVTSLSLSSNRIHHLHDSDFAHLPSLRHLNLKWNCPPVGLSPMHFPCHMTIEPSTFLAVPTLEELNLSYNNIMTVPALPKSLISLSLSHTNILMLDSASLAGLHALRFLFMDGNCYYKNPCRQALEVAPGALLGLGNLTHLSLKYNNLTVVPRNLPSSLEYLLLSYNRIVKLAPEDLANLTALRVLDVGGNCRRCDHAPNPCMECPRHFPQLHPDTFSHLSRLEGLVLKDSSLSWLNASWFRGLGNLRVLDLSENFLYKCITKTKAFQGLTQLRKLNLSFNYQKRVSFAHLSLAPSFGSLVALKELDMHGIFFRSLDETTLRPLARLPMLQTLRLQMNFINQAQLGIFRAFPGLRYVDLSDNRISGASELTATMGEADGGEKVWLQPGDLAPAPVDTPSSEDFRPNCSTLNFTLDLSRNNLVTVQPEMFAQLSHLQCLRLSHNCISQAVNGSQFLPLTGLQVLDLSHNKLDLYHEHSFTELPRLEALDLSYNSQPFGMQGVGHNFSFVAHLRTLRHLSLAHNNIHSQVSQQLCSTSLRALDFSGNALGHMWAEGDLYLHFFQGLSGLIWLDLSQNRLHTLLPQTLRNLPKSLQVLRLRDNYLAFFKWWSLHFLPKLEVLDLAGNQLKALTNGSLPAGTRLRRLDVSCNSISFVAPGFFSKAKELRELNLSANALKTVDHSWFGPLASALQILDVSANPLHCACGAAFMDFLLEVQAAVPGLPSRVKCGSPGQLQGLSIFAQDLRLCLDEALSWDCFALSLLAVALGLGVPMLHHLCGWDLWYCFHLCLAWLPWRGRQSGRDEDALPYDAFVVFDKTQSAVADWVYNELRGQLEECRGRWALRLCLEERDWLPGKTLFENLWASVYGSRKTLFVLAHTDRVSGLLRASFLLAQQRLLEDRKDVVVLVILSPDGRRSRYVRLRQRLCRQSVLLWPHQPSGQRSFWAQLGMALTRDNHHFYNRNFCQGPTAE
In short: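 Dose–response from 0.05 nM to 50 μM was run in HEK-Blue human TLR7, TLR8 and TLR9 reporter cells. After 30 min at room temperature with compound, ligand was added (TLR7 gardiquimod 7.5 μM; TLR8 R848 15.9 μM; TLR9 ODN2006 5 nM) and SEAP measured next day, at 22 h.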

CCc1c(-c2ccc(OC)c(OC)c2)[nH]c2ccc(C3CCN(C4CCN(Cc5c(C)[nH]c6ccccc56)CC4)CC3)cc12 [Example 129, 2-(3,4-dimethoxyphenyl)-3-ethyl-5-(1′-((2-methyl-1H-indol-3-yl)methyl)-[1,4′-bipiperidin]-4-yl)-1H-indole]
IC50 [1]: 1140 nM | IC50 [2]: 378 nM

CNCCN1CCC(c2ccc3[nH]c(-c4ccc(OC)c(OC)c4)c(Cl)c3c2)CC1 [Example 119]
IC50 [2]: 555 nM | IC50 [3]: 409 nM

CNCCN1CCC(c2ccc3[nH]c(-c4ccc(OC)c(OC)c4)c(C#N)c3c2)CC1 [Example 118, 2-(3,4-dimethoxyphenyl)-5-(1-(2-(methylamino)ethyl)piperidin-4-yl)-1H-indole-3-carbonitrile-di-trifluoroacetic acid]
IC50 [2]: 347 nM | IC50 [3]: 260 nM

COc1ccc(-c2[nH]c3ccc(C4CCN(Cc5[nH]cnc5C)CC4)cc3c2C(C)C)cc1OC [Example 267, 2-(3,4-dimethoxyphenyl)-3-isopropyl-5-(1-((4-methyl-1H-imidazol-5-yl)methyl)piperidin-4-yl)-1H-indole]
IC50 [2]: 25 nM

COc1ccc(-c2[nH]c3ccc(C4CCN(Cc5ccncc5)CC4)cc3c2C)cc1OC [Example 20, 2-(3,4-dimethoxyphenyl)-3-methyl-5-(1-(pyridin-4-ylmethyl)piperidin-4-yl)-1H-indole]
IC50 [2]: 978 nM | IC50 [3]: 1740 nM

CCc1c(-c2ccc(OC)c(OC)c2)[nH]c2ccc(C3CCN(C4CCN(Cc5nccn5C)CC4)CC3)cc12 [Example 136, 2-(3,4-dimethoxyphenyl)-3-ethyl-5-(1′-((1-methyl-1H-imidazol-2-yl)methyl)-[1,4′-bipiperidin]-4-yl)-1H-indole]
IC50 [1]: 735 nM | IC50 [2]: 330 nM

COc1ccc(-c2[nH]c3ccc(C4CCN(C(=O)CNc5cc(C(C)(C)C)n[nH]5)CC4)cc3c2C(C)C)cc1OC [Example 216, 2-((3-(tert-butyl)-1H-pyrazol-5-yl)amino)-1-(4-(2-(3,4-dimethoxyphenyl)-3-isopropyl-1H-indol-5-yl)piperidin-1-yl)ethan-1-one]
IC50 [1]: 212 nM | IC50 [3]: ≥ 50000 nM

COc1ccc(-c2[nH]c3ccc(C4CCN(C(=O)COC5CCN(C)CC5)CC4)cc3c2C(C)C)cc1OC [Example 315, 1-(4-(2-(3,4-dimethoxyphenyl)-3-isopropyl-1H-indol-5-yl)piperidin-1-yl)-2-((1-methylpiperidin-4-yl)oxy)ethan-1-one]
IC50 [1]: 538 nM | IC50 [2]: 824 nM

COc1ccc(-c2[nH]c3ccc(C4CCN(C5CCN(C6CCN(C)CC6)CC5)CC4)cc3c2C)cc1OC [Example 81, 2-(3,4-dimethoxyphenyl)-3-methyl-5-(1″-methyl-[1,4′:1′,4″-terpiperidin]-4-yl)-1H-indole]
IC50 [1]: 538 nM | IC50 [3]: 190 nM

COc1ccc(-c2[nH]c3ccc(C4CCN(C5CCN(C6COC6)CC5)CC4)cc3c2C)cc1OC [Example 83, 2-(3,4-dimethoxyphenyl)-3-methyl-5-(1′-(oxetan-3-yl)-[1,4′-bipiperidin]-4-yl)-1H-indole]
IC50 [1]: 2630 nM | IC50 [3]: 1550 nM

COc1ccc(-c2[nH]c3ccc(C4CCN(Cc5ccc(OCCCN(C)C)cc5)CC4)cc3c2C)cc1OC [Example 38, 3-(4-((4-(2-(3,4-dimethoxyphenyl)-3-methyl-1H-indol-5-yl)piperidin-1-yl)methyl)phenoxy)-N,N-dimethylpropan-1-amine]
IC50 [1]: 663 nM | IC50 [3]: 210 nM

CCc1c(-c2ccc(OC)c(OC)c2)[nH]c2ccc(C3CCN(C4CCN(Cc5ccoc5)CC4)CC3)cc12 [Example 146, 2-(3,4-dimethoxyphenyl)-3-ethyl-5-(1′-(furan-3-ylmethyl)-[1,4′-bipiperidin]-4-yl)-1H-indole]
IC50 [1]: 586 nM | IC50 [2]: 178 nM
